Drawing on publication PMC6611822, “Enhancement of laccase activity by pre-incubation with organic solvents” (Scientific Reports, 2019), this text covers Km and kcat/Km for two molecules.

Data set [1] concerns T1, TvLac.
T1 construct: gene LCC1
Particulars: 0% acetone pre-incubation; pH 3.0 citrate-phosphate; 30 °C.

The test system of data set [2] is T2, AbLac.
T2 construct: gene lcc1
As to conditions: 0% acetone pre-incubation; pH 3.0 citrate-phosphate; 30 °C.

Substrate in data set [3]: CCn1c(=NN=c2sc3cc(S(=O)(=O)O)ccc3n2CC)sc2cc(S(=O)(=O)O)ccc21
Description: purified protein. In kind it is biochemical, Cerrena. As to conditions: 0% acetone pre-incubation, pH 3.0 citrate-phosphate, 30 °C, 1.25–800 μM ABTS.

As a reminder, the Km is the concentration of substrate that gives half-maximal velocity. On to `CCn1c(=NN=c2sc3cc(S(=O)(=O)O)ccc3n2CC)sc2cc(S(=O)(=O)O)ccc21` [ABTS, 2,2′-azino-bis(3-ethylbenzothiazoline-6-sulphonic acid)], for which the Km in data set [1] was 29 ± 2.1 µM; in data set [2], 212 ± 19.5 µM.

B1: DLac (Cerrena) (protein)
chain: AVGPVTDIHIVNKDIAPDGFSRPSVLAGGTFPGPLITGQKGDNFKLNVVDDLTDASMLKSTSIHWHGFFQKGTNWADGPAFVNQCPISTGNSFLYNFQVPDQAGTYWYHSHLSTQYCDGLRGAFVVYDPTDPHKALYDVDDESTVITLADWYHTLARQIVGVAIADTTLINGLGRNTNGPADAALAVINVEAGKRYRLRLVSISCDPNYVFSIDNHDFNIIEVDGVNSKPLNVDSIQIFAGQRYSAVLNANQPVGNYWVRANPNLGTTGFTGGINSAILRYKGAPVAEPTTTQTTSTKPLQEPNLRPLVSMPVPGSATPGGVDVVHNLILGFSAGKFTINGAAFTPPSVPVLLQILSGTTNAQDLLPSGSVITLPIGKTIELTLAAGVLGGPHPFHLHGHNFHVVRSAGQTTPNYVDPIVRDVVNTGGTGDNVTIRFTTDNPGPWFLHCHIDWHLEAGFAVVFAEGVNQTNAANPTPADWNNLCNIYNALADGDK
notes: source not restated here; 494 C atoms superimposed in the crystal structures
The term kcat/Km denotes the second-order rate constant that governs catalysis at low substrate concentration. With B1, in data set [3], the Km came out at 24 ± 3.9 µM and the kcat/Km was found to be 1.47e+09 ± 3.1e+08 M⁻¹ s⁻¹.
